Source: PMC11284788, “NN1213 – A Potent, Long-Acting, and Selective Analog of Human Amylin” (Journal of Medicinal Chemistry, 2024)
Like-named read-outs stand apart in the source and are kept apart here. Numbered stars: 1 amine (or outer) side, 2 acyl side, 3 side chain; on linkers, the order of the positions; unused ones are H or OH. Bridge positions count the residues as written; N and C are the ends. Peptide text beside a SMILES is read from it. * marks the point of attachment. C20 diacid = O=C(O)CCCCCCCCCCCCCCCCCCC(=O)*; γGlu = O=C(O)[C@H](CCC(=O)[*:2])N[*:1]

How the values were obtained:
[1] = ThT assay: fibril formation propensity and peptide recovery; format: physicochemical; settings: for ThT, pH 4.0 lag-time: 250 μM peptide, 10 mM glycylglycine pH 4.0, 1 μM ThT, 37 °C, 960 rpm, 45 h, lowest of four replicas, average of experiments; for recovery: pH 4.0, residual dissolved peptide after 45 h of shaking, centrifugation and 0.22 μm filtration, HPLC, relative to amount before stress
Method in brief: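 Peptides at 250 μM in 10 mM glycylglycine (pH 4.0) or HEPES (pH 7.5) with 1 μM ThT, shaken at 37 °C, 960 rpm, for 45 h; ThT fluorescence (ex 444/em 485 nm) read every 20 min. Lag time is the lowest of four replicates (>45 h if none); recovery is soluble peptide by HPLC after centrifugation/filtration, relative to pre-stress.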

hCTR [2] = target: T1, hCTR (Homo sapiens, UniProt P30988); experiment: cAMP-responsive element luciferase reporter assay, human CTR; format: cell-based; settings: luciferase (human receptor assay), Tables S12 and S14
T1 sequence (P30988 25-474): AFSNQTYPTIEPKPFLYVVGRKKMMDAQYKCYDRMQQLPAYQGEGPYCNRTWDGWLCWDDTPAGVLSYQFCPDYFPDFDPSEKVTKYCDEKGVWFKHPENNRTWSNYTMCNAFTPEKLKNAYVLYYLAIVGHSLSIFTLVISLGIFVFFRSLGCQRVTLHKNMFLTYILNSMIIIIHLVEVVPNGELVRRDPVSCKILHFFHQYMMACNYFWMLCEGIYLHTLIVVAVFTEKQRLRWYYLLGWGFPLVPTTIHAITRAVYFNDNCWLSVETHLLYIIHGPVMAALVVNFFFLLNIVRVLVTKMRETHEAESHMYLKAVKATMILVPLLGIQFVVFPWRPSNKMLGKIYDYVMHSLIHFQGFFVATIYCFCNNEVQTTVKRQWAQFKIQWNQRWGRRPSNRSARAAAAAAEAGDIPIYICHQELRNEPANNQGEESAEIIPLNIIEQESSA

hCTR [3] = target: T1, hCTR; experiment: scintillation proximity binding assay, hCTR membranes; parameters: expressed in transfected cells; host or cells: BHK tk-ts 13, transient (FuGENE 6); membranes for the SPA, whole cells for the species-specific assays
rats = experiment: Acute food intake in rats; format: in vivo, rat; settings: single sc injection of 30 nmol/kg, relative to vehicle, mean ± SEM, n = 5–7 per group
[4] = SPA binding assay, Tables S13 and S15

| SMILES | ThT, pH 4.0 lag-time [1] [h] | recovery [1] [%] | hCTR pEC50 (hCTR [2]) | IC50 (hCTR [3]; SPA binding assay, Tables S13 and S15, read-out: hCTR pIC50 (converted)) [nM] | IC50 (hCTR [3]; SPA, BHK cell membranes, 125I-Calcitonin 75 pM, 120 min 25 °C, read-out: hCTR IC50) [nM] | Acute food intake reduction 24–48 h (rats) [%] | hCTR pIC50 (hCTR [3]; [4]) | Acute food intake reduction 0–24 h (rats) [%] |
| --- | --- | --- | --- | --- | --- | --- | --- | --- |
| CC[C@H](C)[C@H](NC(=O)[C@H](C)NC(=O)CNC(=O)[C@H](Cc1ccccc1)NC(=O)[C@H](CC(N)=O)NC(=O)[C@@H]1CCCN1C(=O)[C@H](CO)NC(=O)[C@H](CO)NC(=O)[C@H](Cc1c[nH]cn1)NC(=O)[C@H](CCCNC(=N)N)NC(=O)[C@H](CC(C)C)NC(=O)[C@H](Cc1ccccc1)NC(=O)[C@H](CC(N)=O)NC(=O)[C@H](C)NC(=O)[C@H](CC(C)C)NC(=O)[C@H](CCCNC(=N)N)NC(=O)[C@H](CCC(N)=O)NC(=O)[C@@H](NC(=O)[C@H](C)NC(=O)[C@@H]1CSSC[C@H](NC(=O)[C@@H](N)CCCCNC(=O)CC[C@H](NC(=O)CCCCCCCCCCCCCCCCCCC(=O)O)C(=O)O)C(=O)N[C@@H](CC(N)=O)C(=O)N[C@@H]([C@@H](C)O)C(=O)N[C@@H](C)C(=O)N[C@@H]([C@@H](C)O)C(=O)N1)[C@@H](C)O)C(=O)N1CCC[C@H]1C(=O)N[C@@H](CO)C(=O)N[C@@H](CO)C(=O)N[C@H](C(=O)N[C@@H](CC(N)=O)C(=O)N[C@H](C(=O)NCC(=O)N[C@@H](CO)C(=O)N[C@@H](CCCCN)C(=O)N[C@H](C(=O)N[C@@H](Cc1ccc(O)cc1)C(N)=O)[C@@H](C)O)C(C)C)[C@@H](C)O [Peptide 14] | >45 | 100 | 8.26 | 42.7 | 42.3 | 15 ± 4 | – | – |
| CC[C@H](C)[C@H](NC(=O)[C@H](C)NC(=O)CNC(=O)[C@H](Cc1ccccc1)NC(=O)[C@H](CC(N)=O)NC(=O)[C@@H]1CCCN1C(=O)[C@H](CO)NC(=O)[C@H](CO)NC(=O)[C@H](Cc1c[nH]cn1)NC(=O)[C@H](CCCNC(=N)N)NC(=O)[C@H](CC(C)C)NC(=O)[C@H](Cc1ccccc1)NC(=O)[C@H](CC(N)=O)NC(=O)[C@H](C)NC(=O)[C@H](CC(C)C)NC(=O)[C@H](CCCNC(=N)N)NC(=O)[C@H](CCC(N)=O)NC(=O)[C@@H](NC(=O)[C@H](C)NC(=O)[C@@H]1CSSC[C@H](NC(=O)[C@H](CCCNC(=N)N)NC(=O)CNC(=O)CC[C@H](NC(=O)CCCCCCCCCCCCCCCCCCC(=O)O)C(=O)O)C(=O)N[C@@H](CC(N)=O)C(=O)N[C@@H]([C@@H](C)O)C(=O)N[C@@H](C)C(=O)N[C@@H]([C@@H](C)O)C(=O)N1)[C@@H](C)O)C(=O)N1CCC[C@H]1C(=O)N[C@@H](CO)C(=O)N[C@@H](CO)C(=O)N[C@H](C(=O)N[C@@H](CC(N)=O)C(=O)N[C@H](C(=O)NCC(=O)N[C@@H](CO)C(=O)N[C@@H](Cc1c[nH]cn1)C(=O)N[C@H](C(=O)N[C@@H](Cc1ccc(O)cc1)C(N)=O)[C@@H](C)O)C(C)C)[C@@H](C)O [Peptide 19] ({C20 diacid-γGlu}-GRCNTATCATQRLANFLRHSSPNFGAIPSSTNVGSHTY-NH2; disulfide 3-8) | >45 | 84 | 8.88 | – | – | 6 ± 7 | 7.81 | – |
| CC[C@H](C)[C@H](NC(=O)[C@H](C)NC(=O)CNC(=O)[C@H](Cc1ccccc1)NC(=O)[C@H](CC(N)=O)NC(=O)[C@@H]1CCCN1C(=O)[C@H](CO)NC(=O)[C@H](CO)NC(=O)[C@H](Cc1c[nH]cn1)NC(=O)[C@H](CCCNC(=N)N)NC(=O)[C@H](CC(C)C)NC(=O)[C@H](Cc1ccccc1)NC(=O)[C@H](CC(N)=O)NC(=O)[C@H](C)NC(=O)[C@H](CC(C)C)NC(=O)[C@H](CCCNC(=N)N)NC(=O)[C@H](CCC(N)=O)NC(=O)[C@@H](NC(=O)[C@H](C)NC(=O)[C@@H]1CSSC[C@H](NC(=O)[C@H](CCCCN)NC(=O)CC[C@H](NC(=O)CCCCCCCCCCCCCCCCCCC(=O)O)C(=O)O)C(=O)N[C@@H](CC(N)=O)C(=O)N[C@@H]([C@@H](C)O)C(=O)N[C@@H](C)C(=O)N[C@@H]([C@@H](C)O)C(=O)N1)[C@@H](C)O)C(=O)N1CCC[C@H]1C(=O)N[C@@H](CO)C(=O)N[C@@H](CO)C(=O)N[C@H](C(=O)N[C@@H](CC(N)=O)C(=O)N[C@H](C(=O)NCC(=O)N[C@@H](CCCNC(=N)N)C(=O)N[C@@H](CC(N)=O)C(=O)N[C@H](C(=O)N[C@@H](Cc1ccc(O)cc1)C(N)=O)[C@@H](C)O)C(C)C)[C@@H](C)O [Peptide 16] | >45 | 100 | 8.60 | – | – | 4 ± 5 | 7.71 | 32 ± 4 |
